Assay results from patent EP4663640A1 (Shanghai Institute of Materia Medica, Chinese Academy of …, priority 2023, dated 2024).
Where “and” joins values, the source holds several entries; their conditions need not be identical. Identical values can stand only once. Like-named read-outs stand apart in the source and are kept apart here. Values belong to the compound of their own block, whether it stands above or below them.

Experiments:
hTRPC5 = biological target: T1, hTRPC5 (Homo sapiens, UniProt Q9UL62); experiment: TRPC5 inhibitory activity assay (FLIPR calcium fluorescence, Englerin A stimulation); type: cell-based
T1 construct: expressed in transfected cells; host or cells: HEK-293
T1 sequence (Q9UL62 1-973): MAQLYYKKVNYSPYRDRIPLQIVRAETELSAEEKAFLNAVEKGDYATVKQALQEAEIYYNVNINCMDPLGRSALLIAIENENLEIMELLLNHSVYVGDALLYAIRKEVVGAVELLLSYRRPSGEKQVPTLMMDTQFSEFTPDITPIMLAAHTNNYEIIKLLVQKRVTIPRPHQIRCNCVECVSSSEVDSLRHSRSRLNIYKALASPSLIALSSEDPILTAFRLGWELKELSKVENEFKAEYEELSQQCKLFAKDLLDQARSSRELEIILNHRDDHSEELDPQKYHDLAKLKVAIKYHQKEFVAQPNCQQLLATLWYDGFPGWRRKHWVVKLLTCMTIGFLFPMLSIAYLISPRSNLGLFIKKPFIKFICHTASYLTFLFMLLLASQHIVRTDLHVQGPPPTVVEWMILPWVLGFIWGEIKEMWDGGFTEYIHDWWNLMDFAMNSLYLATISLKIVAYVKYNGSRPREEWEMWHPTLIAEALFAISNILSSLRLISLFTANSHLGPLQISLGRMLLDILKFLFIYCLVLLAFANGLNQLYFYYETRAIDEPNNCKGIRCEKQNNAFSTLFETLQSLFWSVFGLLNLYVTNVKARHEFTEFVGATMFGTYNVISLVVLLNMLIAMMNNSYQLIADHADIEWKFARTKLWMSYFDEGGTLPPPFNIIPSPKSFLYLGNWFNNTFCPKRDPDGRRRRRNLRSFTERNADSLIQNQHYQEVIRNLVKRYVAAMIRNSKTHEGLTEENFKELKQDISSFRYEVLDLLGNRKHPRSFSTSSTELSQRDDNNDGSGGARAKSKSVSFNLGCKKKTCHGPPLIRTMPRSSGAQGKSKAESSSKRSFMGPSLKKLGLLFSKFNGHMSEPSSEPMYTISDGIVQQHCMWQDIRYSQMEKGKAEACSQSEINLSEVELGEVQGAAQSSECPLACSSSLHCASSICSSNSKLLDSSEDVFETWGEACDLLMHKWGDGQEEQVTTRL
Outline: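 HEK-293 cells expressing the human channel, loaded with 4 µM Fluo-4/AM for 60 min at 37 °C, then stimulated with Englerin A (0.3nM final) and read for 600 s.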

[1] = Pharmacokinetics in rats (oral and intravenous); type: in vivo, SD rats
Experimental: Intravenous (IV) administration: the drug to be tested was dissolved in DMSO/Solutol/normal saline at a ratio of 5:5:90 (v/v/v), with a concentration of 0.2 mg/mL, and the administration volume was 5 mL/kg. Oral (PO) administration: the drug to be tested was dissolved in DMSO/Tween 80/0.5% CMC-Na solution at a ratio of 2:2:96 (v/v/v), with a concentration of 1 mg/mL, and the administration volume was 10 mL/kg.
Male SD rats weighing 180-280g, 3 rats in each group, fasted for 12h before the experiment, had free access to water, and ate uniformly 4 h after administration. In the IV group, the rat tail vein was administered with a dose of 1mg/kg, and blood was collected at 0.083, 0.25, 0.5, 1.0, 2.0, 4.0, 6.0, 8.0, 12 and 24 h after administration. PO group, administered by gavage at a dose of 10 mg/kg, blood was collected at 0.25, 0.5, 1.0, 2.0, 4.0, 6.0, 8.0, 12 and 24 h after administration. At the above time points, 0.2 mL of blood was collected from the jugular vein and placed in an anticoagulant tube containing EDTA-K2. After the whole blood was collected, it was temporarily stored in an ice water bath, centrifuged at 11000 rpm for 5 min within 30min, the plasma was separated, and then frozen in a -70 °C refrigerator for testing. Tissue distribution group, oral administration, dose of 10mg/kg, 2h after drug administration, rats were anesthetized, bled through the abdominal aorta, and immediately dissected to collect brain, heart, liver, spleen, lung, kidney, colon, muscle. Part of the whole blood was collected and operated in an ice bath. The whole blood was centrifuged at 11000 rpm for 5 min within 30 min, and plasma (about 200 µL) was separated. After the tissue and plasma were collected, they were stored below -60 °C for testing. After each tissue was accurately weighed, the homogenizing reagent acetonitrile-water (1:1, v/v) was added for homogenization, wherein the raion of tissue to homogenizing reagent was 1:4 (g:mL). After homogenization, the samples were sonicated for 10 min, and the supernatant was taken after centrifugation for detection. The drug concentration in the samples was quantified using LC-MS/MS method. Relevant pharmacokinetic parameters Tmax, Cmax, AUC0-∞, t1/2, etc. were calculated using WinNonlin software.

[2] = Preliminary pharmacokinetic evaluation, plasma drug concentration after oral administration to mice; type: in vivo, ICR mice; conditions: male, ICR, mouse, oral 10 mg/kg, Mean ± SD, N = 3
Experimental: The test compound was prepared according to the following solvent: an aqueous solution of DMSO/Tween 80/0.5% (m/v) CMC-Na at a ratio of 2:2:96 (v/v/v), with a drug concentration of 1 mg/mL. Then, the test compound was gavaged to mice at a dosage of 10 mL/kg, with a dose of 10 mg/kg. Each compound was administered to 3 mice. At 1h and 4h after administration, about 50 µL of blood was collected from the orbital venous plexus of the mouse and placed in a centrifuge tube containing EDTA-K2 anticoagulant.

[3] = Table 1, TRPC5 channels, HEK-293 cells expressing hTRPC5, read-out: FLIPR IC50
[4] = Table 3, read-out: inhibitory activity IC50 TRPC5
[5] = male, SD, rat, plasma, 1 mg/kg (IV)
[6] = male, SD, rat, plasma, 10 mg/kg (PO)

Compound: Cn1c(=O)n(CCCO)c(=O)c2c1nc(C1(F)CCC(C(F)(F)F)CC1)n2Cc1ccc(Cl)cc1 (centres unmarked) [Example E21, 7-(4-chlorobenzyl)-8-(1-fluoro-4-(trifluoromethyl)cyclohexyl)-1-(3-hydroxypropyl)-3-methyl-3,7-dihydro-1H-purine-2,6-dione]
IC50 (hTRPC5; [3]): 5.1 nM
IC50 (hTRPC5; [4]): 5.1 nM

Compound: COC1CCC(F)(c2nc3c(c(=O)n(CCCO)c(=O)n3C)n2Cc2ccc(Cl)cc2)CC1 (centres unmarked) [Example E32, 7-(4-chlorobenzyl)-8-(1-fluoro-4-methoxycyclohexyl)-1-(3-hydroxypropyl)-3-methyl-3,7-dihydro-1H-purine-2,6-dione]
IC50 (hTRPC5; [3]): 10.2 nM
IC50 (hTRPC5; [4]): 10.2 nM

Compound: Cn1c(=O)n(CCCO)c(=O)c2c1nc(C1(F)CCC(C(F)(F)F)CC1)n2Cc1ccc(F)c(F)c1 (centres unmarked) [Example E52]
IC50 (hTRPC5): 1.3 nM

t1/2 ([1]; 10 mg/kg (PO), 10 mg/kg): 4.88 ± 0.80 h
F ([1]; 10 mg/kg (PO), oral bioavailability, 10 mg/kg): 62.2% and 62.2 ± 15.9%
AUC(0-inf) [1, 5]: 1170 ± 406 ng·h/mL
Cmax [1, 5]: 772 ± 92 ng/mL
clearance [1, 5]: 15.4 ± 4.98 mL/min/kg
half-life [1, 5]: 3.77 ± 2.14 h
Vd ([1]; male, SD, rat, plasma, 1 mg/kg (IV), read-out: VSS): 2.94 ± 0.79 L/kg
AUC(0-inf) [1, 6]: 7220 ± 1850 ng·h/mL
Tmax [1, 6]: 0.5 h
half-life [1, 6]: 4.88 h
Cmax ([1]; male, rat, plasma, 10 mg/kg (PO), Mean±SD, N=3): 1600 ng/mL
concentration at 1 h ([2]; 1h): 2700 ± 54 ng/mL
concentration at 4 h ([2]; 4h): 1890 ± 213 ng/mL
IC50 (hTRPC5; [3]): 0.58 nM
IC50 (hTRPC5; [4]): 0.58 nM
Compound: Cn1c(=O)n(CCCO)c(=O)c2c1nc(C1(F)CCC(F)(F)CC1)n2Cc1ccc(F)c(Cl)c1 [Example E68, 7-(3-chloro-4-fluorobenzyl)-1-(3-hydroxypropyl)-3-methyl-8-(1,4,4-trifluorocyclohexyl)-3,7-dihydro-1H-purine-2,6-dione]
